# Experimental data as given in publication PMC8395040 (International Journal of Molecular Sciences, 2021).
# How the values were obtained:
# HT29 cells = assay: Annexin V-FITC/PI assay, HT29; assay type: cell-based, human; conditions: for early apoptosis (II): 19 µM, 3 or 12 h, untreated control 2.7%
# Experimental: HT29 cells were seeded in a 12-well plate (5 × 10^5 cells per well) and incubated overnight in DMEM F12. […] The cells were collected and then processed for apoptosis analysis using the Annexin-V/PI Alexa Fluor 488 Apoptosis Kit (Invitrogen, Waltham, MA, USA) according to the manufacturer’s instructions. Finally, cells were analysed by flow cytometry (BD; FACS Canto II, Mountain View, CA, USA) and data were processed using the FCS Express v6 software. Three independent replicates were performed.
# HEK293 = assay: MTT cytotoxicity assay, HEK293 control cells; assay type: cell-based, human; conditions: for IC50: Homo sapiens, HEK293, MTT, 72 h, non-cancer cell line;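 as to all read-outs here: Read-out is formazan absorbance at 570 nm from MTT reduction in 96-well plates, with three independent biological replicates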
# Experimental: Briefly, cancer cell lines were plated in flat-bottom 96-well plates at a cell concentration of 5 × 10^3 cells/well for the fastest growing lines, such as HEK293 and HT29 cells and 1 × 10^4 cells/well for more slowly growing lines, such as HCT116, H1975, BxPC-3, AsPC-1, B16-F10 and DAOY. Then, cells were incubated with the synthesised compounds at different concentrations (from 0.05 to 50 µM) in 200 µL with 10% FBS in RPMI 1640 or DMEM F12 culture medium at 37 °C for 72 h. Later, 10 µL of MTT were added at a final concentration of 0.5 mg/mL, incubated at 37 °C for 4 h, and then solubilised with 10% sodium dodecyl sulphate (SDS) in 0.1 mM HCl and incubated overnight at 37 °C. Formazan formation was measured at 570 nm in a multiwell plate reader (Cytation 5, Biotek Instruments, Winooski, VT, USA). Three independent biological replicates were performed.
# [1] = tested on: GLI1-responsive luciferase reporter in HCT116 cells; assay: HH-dependent GLI luciferase reporter assay in HCT116; assay type: cell-based, human; conditions: 24 h, 4s 1.5 µM, vismodegib 1 µM; for activation induced by the agonist purmorphamine: purmorphamine 20 µM
# Experimental: Luciferase and renilla activity were assayed with a dual-luciferase assay system according to the manufacturer’s instructions (Cignal Reporter Gli-luciferase, ADN, Qiagen, Hilden, Germany). Results were expressed as luciferase/renilla ratios and represent the mean of triplicate values in one assay.
# Supplemental Figure S2: Luciferase reporter activity dependent on the Hh pathway.
# This assay was performed in HCT116 cells stably transformed with a Gli responsive luciferase reporter gene and a renilla luciferase gene (normalization control), treated for 24 […]
# renilla activity were assayed with the dual-luciferase assay system Cignal Reporter Gli - luciferase (ADN, Qiagen). Results are expressed as luciferase/renilla activity ratios and represent the mean of triplicate values from one assay. […]
# (1 picture or pasted object on this page, not shown here)
# Solubility in water = assay type: physicochemical
# B16F10 cells = assay: MTS viability assay, B16F10; assay type: cell-based, murine; conditions: Mus musculus, B16-F10, 24 h
# Experimental: In the case of experiments using nanoemulsions, cell proliferation was evaluated after treatments. To do this the complete medium containing treatments was removed and replaced with fresh culture medium supplemented with 10% tetrazolium compound of the MTS® assay (CellTiter 96® Aqueous Non-Radioactive Cell Proliferation Assay), according to the manufacturer’s instructions (Promega, Madison, WI, USA). The soluble formazan produced by live cells was detected as absorbance at 490 nm on a Multiscan Reader (Synergy-H4, Biotek). Background values contributed by excess of cell debris and bubbles were measured at 650 nm and were subtracted.
# Figure 7 Effect of 4s-NEM on the viability of cancer (B16F10) and non-cancer (HEK293) cells in vitro. Cells were treated with 4s-NEM at different concentrations for 24 h and their viability was evaluated using the MTS assay; SDS, the vehicle for NEM, and 4s free in the culture medium were used as controls. The IC50 was determined in each case. (A) Effect of 4s-NEM on B16F10 cells. Six independent experiments were performed in triplicate. Results are shown as the mean ± SEM. (B) Effect of 4s-NEM on HEK293 cells. Results are shown as the mean ± SEM of three separate experiments. (***) p < 0.001, (*) p < 0.05 vs. control, ns = non-significant. Data analysis was performed via a 2-way ANOVA Tukey’s multiple comparisons test.
# human SMO D473H mutant = target: T1, human SMO D473H mutant (Homo sapiens, UniProt Q99835, D473H); assay: BODIPY-cyclopamine displacement assay, SMO D473H; assay type: binding
# T1 construct: Myc; expressed in transfected cells; host or cells: HEK293T
# Experimental: (§1) HEK293T cells were transfected with genes encoding human WT SMO tagged with Myc-DDK or human SMO D473H mutant tagged with Myc. Cells were washed in PBS supplemented with 0.5% FBS, fixed in 4% paraformaldehyde in PBS for 10 min, and incubated for 6 h at 37 °C in the same medium supplemented with BODIPY-cyclopamine (5 nM), with and without 4s at different concentrations ([…]). The cells were permeabilised with 0.2% Triton X-100 (Sigma, St. Louis, MO, USA). Dako Fluorescent Mounting solution (Dako, Carpinteria, CA, USA) was used as mounting medium and the Hoechst reagent for staining of cell nuclei. BODIPY (green) and Hoechst (blue) signals were analysed in three representative fields per coverslip (×20 magnification). Data were expressed as the percentage of BC incorporation observed with BC alone.
# [2] = tested on: Gli1 mRNA in WT MEFs stimulated with SAG; assay: Gli1 mRNA (qRT-PCR) in SAG-stimulated WT MEFs; assay type: cell-based, mouse; conditions: 10 µM, SAG 200 nM, 24 h
# [3] = tested on: cancer cell lines (HH-dependent and HH-independent); assay: Annexin V-FITC/PI dose-response, cancer cell lines; assay type: cell-based, human; conditions: 1.5–50 µM, 72 h
# Experimental: Apoptosis plays a major role in maintaining the homeostasis of cells. Cellular shrinkage and DNA fragmentation at the molecular level are characteristics acquired during apoptosis. Therefore, we performed flow cytometric analysis to determine if 4s could induce apoptosis in tumour cell lines. To this end, 4s-treated cells were stained with Annexin V-FITC and/or PI and analysed by flow cytometry. Dose–response effects were assessed using 4s at concentrations under 50 µM (1.5, 3.0, 6.25, 19, 25 and 50 µM) for 72 h.
# Supplemental Figure S1: 4s triggers apoptosis in various cancer cell lines. A)
# Dose-response curves are shown for four neoplastic cancer cell lines and HEK293 cells as a control. Cells were treated with 4s […]
# stained with annexin V-FITC and propidium iodide (PI) and analyzed by flow cytometry.
# Results are presented as the mean ± SD of three independent experiments. (***) p <
# 0.0001 vs. control. Data were analyzed with a non-parametric t-test. B) Representative dot plot of HT29 cells untreated (control) or treated for 3 h with 4s (19 µM ). […]
# human WT SMO = target: T2, human WT SMO (Homo sapiens, UniProt Q99835); assay: BODIPY-cyclopamine displacement assay, WT SMO; conditions: HEK293T transfected with WT SMO, BC 5 nM; read-out: IC50 for binding to WT SMO (BC displacement)
# T2 construct: Myc-DDK; expressed in transfected cells; host or cells: HEK293T
# Experimental: as §1
# T1 sequence (Q99835 28-787 D473H): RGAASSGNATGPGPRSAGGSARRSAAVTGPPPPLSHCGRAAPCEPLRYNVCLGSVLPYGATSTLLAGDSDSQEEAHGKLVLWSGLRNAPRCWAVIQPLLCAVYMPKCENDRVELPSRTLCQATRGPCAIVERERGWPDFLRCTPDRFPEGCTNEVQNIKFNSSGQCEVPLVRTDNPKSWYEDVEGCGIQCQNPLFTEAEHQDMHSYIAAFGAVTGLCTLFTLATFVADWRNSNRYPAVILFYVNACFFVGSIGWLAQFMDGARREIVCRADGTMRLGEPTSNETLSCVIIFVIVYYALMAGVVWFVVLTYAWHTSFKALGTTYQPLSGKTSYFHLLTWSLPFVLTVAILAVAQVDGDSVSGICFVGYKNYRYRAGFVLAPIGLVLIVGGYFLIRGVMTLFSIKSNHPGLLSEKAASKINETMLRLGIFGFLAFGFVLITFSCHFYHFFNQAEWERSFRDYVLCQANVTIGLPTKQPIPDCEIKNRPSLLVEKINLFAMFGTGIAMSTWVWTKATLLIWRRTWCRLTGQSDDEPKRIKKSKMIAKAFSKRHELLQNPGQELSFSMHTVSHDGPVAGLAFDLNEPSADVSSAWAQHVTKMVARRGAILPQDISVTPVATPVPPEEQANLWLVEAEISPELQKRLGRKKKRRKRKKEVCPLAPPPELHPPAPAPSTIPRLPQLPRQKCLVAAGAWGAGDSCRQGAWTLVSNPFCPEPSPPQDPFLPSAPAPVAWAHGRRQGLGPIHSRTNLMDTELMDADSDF
# T2 sequence (Q99835 28-787): as the sequence (Q99835 28-787 D473H) above, with H446D counted along it
Structure (SMILES),early apoptosis (II) (HT29 cells),IC50 (HEK293),basal GLI1 transcription activity [1],activation induced by the agonist purmorphamine [1],"viability at 19 µM (HT29 cells; Homo sapiens, HT-29, 3 or 12 h, control around 95.7%, read-out: cell viability (Annexin V-FITC/PI))",solubility in water (Solubility in water),IC50 (B16F10 cells),concentration above which toxic to SMO-D473H cells (human SMO D473H mutant; HEK293T expressing SMO-D473H),"binding to the SMO-D473H mutant receptor (human SMO D473H mutant; HEK293T expressing SMO-D473H, up to 5 µM)","decrease of binding affinity with SMO-D473H mutant compared to WT SMO (human SMO D473H mutant; suggested, no IC50 determinable)",Gli-1 expression in WT MEF cells stimulated with SAG [2],induction of apoptosis [3],IC50 (human WT SMO),concentration at which effects on HEK293 cells were observed (HEK293)
"CS(=O)(=O)c1ccc(C(=O)Nc2ccc(Cl)c(-c3ccccn3)c2)c(Cl)c1 [Vismodegib, reference compound]",no statistically significant differences,> 50 µM,did not affect basal GLI1 transcription activity,effectively reduced the activation,–,–,–,–,–,–,–,–,–,–
"CCCCCCn1cnc2c(-c3ccc(OC(F)(F)F)cc3)nc(N3CCN(c4ccncc4)CC3)nc21 [Compound 4s, 9-Hexyl-2-(4-(pyridin-4-yl)piperazin-1-yl)-6-(4-(trifluoromethoxy)phenyl)-9H-purine]",64.6%,> 50 µM,did not affect basal GLI1 transcription activity,effectively reduced the activation,~33.8%,poor,27.5 µM,above 5 µM,dose-dependent inhibition of binding,about 25%,inhibited Gli-1 expression,induced apoptosis in a dose-dependent manner,0.95 µM,above 50 µM
